According to patent publication US11318090B1, “In situ gelling composition as a pH-selective and mucoadhesive sustained release drug delivery system” (King Abdulaziz University, priority 2021, dated 2022):

Experiment: pH-profile drug release in dialysis bag, consecutive simulated gastrointestinal media
Type: physicochemical
Description: Rv (Sigma-Aldrich, USA) stock solution of 15 μg/mL was prepared in distilled water. Using UV spectrophotometric analysis (Shimadzu-UV-Vis Spectrophotometers, Japan), the analysis was conducted at a wavelength of 306 nm in a 1 cm cell compared to a blank solution of distilled water. To construct a calibration curve, dilutions had been prepared (FIG. 1). The ? -max selection was based on the UV-scanning from 200-400 nm of pure Rv solution. The formulations' drug-content assays for drug encapsulation efficiency were accomplished by dissolving the formulation in ethanol and centrifuging it for 30 minutes at 1500 rpm. After that, an accurate volume of the supernatant transparent layer had been measured for UV-absorbance at 306 nm for Rv content. This ? -max was unique for Rv only (Zhang Lingtuo et al. 2019).
The formulations in Table 1 containing 500 mg of the Rv were each encountered in the dialysis bag (14000 Daltons cut off, Sigma-Aldrich, USA). The dry weights of the formulations were reconstituted with distilled water before enclosing them inside the dialysis bag. The release media volume was 300 mL. The drug-release experiment was designed to simulate the gastrointestinal-pH and transit time after oral ingestion. As a result, the dialysis membranes' surrounding media simulated gastric media (0.1N HCl-pH 1.2), proximal intestine simulated media (phosphate buffer-pH 6.5), the distal area of the small intestine (phosphate buffer-pH 6.8), and phosphate buffer media-pH 7.4 of descending colon simulated media, consecutively. The transit time for each simulated media was two hrs (Amidon et al. 2015; Maurer et al. 2015; Bani-Jaber and Abdullah 2020). The dialysis membranes were subjected to 37±0.5° C. in a water bath shaker of 75 rpm speed. Total release media replacement was made after each hour of dissolution to simulate body sink conditions. This experiment was conducted to optimize the formulation depending on SR behavior and drug encapsulation efficiency. The optimum formula was subjected to aging, gel swelling studies, nanoparticle, and formulation's physiochemical characterizations.

Gastric % Release (0.1N HCl pH 1.2, 2 hrs, 37°C, 500 mg Rv, freshly prepared): 16.83% | average total pH-profile release after 8 hrs (pH 1.2, 6.5, 6.8, 7.4, 2 hrs each): 50.89% | Intestinal-Colonic % Release (pH 6.5, 6.8 and 7.4 media together (6 hrs), freshly prepared): 34.06% | Proximal Intestine % Release (phosphate buffer pH 6.5, 2 hrs, freshly prepared): 11.49% | Distal Intestine % Release (phosphate buffer pH 6.8, 2 hrs, freshly prepared): 12.74% | Colon % Release (phosphate buffer pH 7.4, 2 hrs, freshly prepared): 9.83%
Substance: 3,5,4-trihydroxytrans-stilbene [Rv]
